From US20150157588A1, “Pharmaceutical Composition Comprising Amino-Phenyl-Acetic Acid Octadec-(Z)-9-enyl Ester and Use Thereof for Treating Tumors” (Yeda Research and Development Co., Ltd., priority 2012, published 2015)

Columns and labels:
[1] = tested on: p53 expressing L-12 mouse B cell line; experiment: Apoptosis by hypo-diploid nuclei PI staining, transformed B cell line; type: cell-based; settings: 10 or 100 μg per ml in 5% ethanol solution, 48 h
Experimental: Apoptosis was measured by FACS analysis with a hypo-diploid nuclei propidium iodide (PI) staining of an amino-phenyl-acetic acid octadec-(Z)-9-enyl ester treated p53 expressing L-12 mouse B cell line. FIGS. 4A-4C: L-12 cells treated with 0, 10 or 100 μg/ml of amino-phenyl-acetic acid octadec-(Z)-9-enyl ester in ethanol solution, respectively; FIGS. 4D-4F: L-12 cells treated with 0, 10 or 100 μg/ml of the control reagent 4-methyl-piperazino-acetic acid ethyl ester in ethanol solution, respectively; and FIGS. 4G-4I: L-12 cells treated with an ethanol volume corresponding to 0, 10 or 100 μg/ml of amino-phenyl-acetic acid octadec-(Z)-9-enyl ester, respectively. FL2-A is the measure of fluorescence. […]
(§1) B or T-cell apoptosis was detected by flow cytometry. […] The cells were then subjected to flow cytometric analysis; for each sample 10,000 were collected and cell-cycle distribution was analyzed according to relative DNA content (PI staining). […] The cells were then collected, stained by APO-DIRECT TUNNEL kit (Phnxflow, CITY, Calif., USA); mitochondrial potential was measured by DePsipher (R&D Systems, Minneapolis, Minn.) according to the manufacturer's procedure. Intracellular caspase activity was measured by Apostat kit (R&D Systems), according to the manufacturer's procedure. The cells were analyzed by Flow cytometry using FACSort (Becton Dickinson) and CellQuest software (Becton Dickinson). […]

[2] = tested on: freshly isolated mouse B cells; experiment: Spontaneous apoptosis by hypo-diploid nuclei PI staining, primary B cells; type: cell-based; settings: 1 or 100 μg/ml in ethanol solution
Experimental: Apoptosis was measured by FACS analysis with a hypo-diploid nuclei propidium iodide (PI) staining of freshly isolated mouse B cells treated with amino-phenyl-acetic acid octadec-(Z)-9-enyl ester in ethanol solution. FIGS. 5A-5C: L-12 cells treated with 0, 1 or 100 μg/ml of amino-phenyl-acetic acid octadec-(Z)-9-enyl ester, respectively; FIGS. 5D-5F: L-12 cells treated with 0, 1 or 100 μg/ml of the control reagent 4-methyl-piperazino-acetic acid ethyl ester, respectively; and FIGS. 5G-5I: L-12 cells treated with an ethanol volume corresponding to 0, 1 or to 100 μg/ml of amino-phenyl-acetic acid octadec-(Z)-9-enyl ester in ethanol solution, respectively.
as §1

[3] = Light scattering at 90 degrees of aggregates in PBS with 0-20% ethanol; type: physicochemical; design: key to intensity of light scattering, relative scale: relative light-scattering intensity; 0% ethanol = 100; settings: 10 μM in PBS; for intensity of light scattering, relative scale: 90 degrees, 560 nm
Experimental: Light scattering at 90 degrees can be used to assess the amount of aggregates in a solution. Higher readings are indicative of a higher degree of aggregation, while lower readings are indicative of disintegration of aggregates into monomers. A series of 10 μM amino-phenyl-acetic acid octadec-(Z)-9-enyl ester solutions was prepared in PBS containing ethanol concentrations of 0-20%. The intensity of light scattering of each solution was recorded at 90 degrees with a 560 nm beam in a Perkin Elmer fluorimeter. The results, presented in a relative scale with respect to the percent ethanol (% ethanol indicated in brackets), were as follows: 100 (0); 98 (0.5); 90 (1): 75 (2); 45(3); 26 (4); 10 (5); 8 (10); 6 (20).

Structure (SMILES): CCCCCCCC/C=C\CCCCCCCCOC(=O)C(N)c1ccccc1 (stereo not drawn) [amino-phenyl-acetic acid octadec-(Z)-9-enyl ester]
- apoptosis / cell cycle (cells in sub-GO state) [1]: induced massive apoptosis
- spontaneous apoptosis / cell-cycle of primary B cells [2]: partially protected from the spontaneous apoptosis
- ethanol concentration in whose presence micellar aggregates disintegrate [3]: above 4 % ethanol
- intensity of light scattering, relative scale ([3]; 0% ethanol): 100
- intensity of light scattering, relative scale ([3]; 0.5% ethanol): 98
- intensity of light scattering, relative scale ([3]; 1% ethanol): 90
- intensity of light scattering, relative scale ([3]; 2% ethanol): 75
- intensity of light scattering, relative scale ([3]; 3% ethanol): 45
- intensity of light scattering, relative scale ([3]; 4% ethanol): 26
- intensity of light scattering, relative scale ([3]; 5% ethanol): 10
- intensity of light scattering, relative scale ([3]; 10% ethanol): 8
- intensity of light scattering, relative scale ([3]; 20% ethanol): 6
